Experimental data taken from a melting point compilation (Tetko et al.; mined from patent text by program, amines drawn as free bases though some values may be those of a salt).

melting point	SMILES
88 to 89 °C	O=C(O)CCCCC(=NOCc1ccc(OCc2noc(-c3ccccc3)n2)cc1)c1ccccc1
108 to 110 °C	Cc1cc(C=O)c(C)c(Br)c1C
271 to 272 °C	O=C(O)c1cccc(-c2ccc3occ(-c4ccc(Cl)cc4Cl)c3c2)c1
93.6 °C	COc1cc(OCc2ccccn2)ccc1C=O
92 to 93 °C	COC(=O)c1cc2c(C)ccc(C)c2n1C(C)=O
124 to 128 °C	COc1cc(C(=O)N2CCCC2CO)c([N+](=O)[O-])cc1OC (stereo not given)
201 to 202 °C	CCCCCn1ncc2c(N)c(C(N)=O)cnc21
77 to 78 °C	O=C(O)CCCCCCCCCCCCO
193 to 195 °C	Cn1c(=O)c(-c2ccc(Cl)cc2Cl)cc2c3cc(-c4csc(COC(=O)C(C)(C)C)n4)ccc3n(C)c21
65 to 67 °C	CC(C)(C)OC(=O)NCC(O)(CNCC(O)C(Cc1ccccc1)NC(=O)OC(C)(C)C)Cc1ccccc1 (stereo not given)
192 to 194 °C	Cn1nc(-c2cccc(C(F)(F)F)c2)c(O)c1C(=O)O
271 to 272 °C	CS(=O)(=O)c1cnc(NC(=O)c2cccc(O)c2)s1
198 to 200 °C	O=C(NC1CCN(Cc2ccccc2)CC1)c1n[nH]c2ccccc12
143 to 145 °C	CC(=O)CC(=O)CC(=O)c1cc(S(=O)(=O)c2ccccc2)ccc1[N+](=O)[O-]
229 to 230 °C	C[C@@H]1CCC[C@H](C)N1Cc1ccc2cc(NC(=O)c3ccc(-c4ccc(Cl)cc4)nc3)ccc2c1
75 to 93 °C	COc1cc2c(cc1Nc1ncc(Cl)c(Nc3ccccc3S(=O)(=O)N(C)C)n1)CCN(CC(=O)N1CCCC1)CC2
196 to 197 °C	CCOC(=O)c1ccc(Cn2c(C)nc3ccc(C(=O)NS(=O)(=O)c4ccccc4)nc32)c(Cl)c1
55 to 56 °C	CC(=O)OCCc1ccc(-c2csc(=O)s2)cc1
196 to 198 °C	O=C(NC(=O)c1cccnc1)NC1CCN(Cc2ccc3ncccc3c2)CC1
48 to 50 °C	CCCCCCCCOC(=O)CCCCCNC(=O)c1cc(OCc2ccccc2)ccc1OCc1ccccc1
209 °C	Cc1ccc(-c2ccc(C(=O)Nc3ccc4cc(CN5CCCCCC5)cnc4c3)cc2)cc1
180 °C	C[C@]12CCC3=C4CCC(=O)C=C4CC[C@H]3[C@@H]1CCC21OCCC1O (stereo not given in full)
137 °C	COc1nc(NS(=O)(=O)c2ccccc2Cl)nc(OC)n1

melting point	SMILES
243 °C	CC1(C)CC(=O)C(c2c(Cl)cc(N)cc2Cl)C(=O)C1
62 °C	O=CCC1Cc2ccc(F)cc2C1=O (racemic)
135 to 140 °C	Cn1nc(-c2c(F)cccc2Cl)nc1-c1ccc(Oc2ccccc2)cc1Cl
69 °C	O=C(C1CCCC1)[C@H]1CCn2c(cc3ccccc32)C1
218 °C	O=C(O)Cc1ccc2c(c1)Cc1cccnc1O2
134 to 135 °C	COc1ccc(-c2ccc(C(=O)O)c(OC)c2)cc1OC
146 to 147 °C	CC(C)CCS(=O)(=O)c1cccc(-c2nc(=O)c3ccccc3s2)n1
133 °C	FC(F)(F)c1ccc(-c2ncn(CCCN3CCOCC3)c2-c2ccncc2)cc1
114 °C	N=C(Cc1nc2cnc3ccc(Cl)cc3c2n1-c1ccccc1Cl)NO
124 to 125 °C	CCC(CC)(OC)c1ccc(Cl)c2nc3n(c12)CCCN3c1ccc(Cl)cc1Cl
108 °C	Clc1ccc(COC(CCCn2ccnc2)c2ccc(Cl)cc2Cl)c(Cl)c1 (stereo not given)
243 °C	O=C1CC(c2cccc(-n3ccnn3)c2)=Nc2cc(O)c(C#Cc3ccc(F)cc3)cc2N1
96 to 97 °C	O=C1CCCCC1C(C[N+](=O)[O-])c1ccc(Cl)cc1 (racemic)
180 °C	CCCCc1nc(SC)c(C(=O)O)n1Cc1ccc(-c2ccccc2-c2nnn[nH]2)cc1
29 to 31 °C	CN(C)CCCN=Cc1ccc2ccccc2c1
111 to 113 °C	CCC1(CO)CCCN2CCC3=c4ccccc4=NC3=C21 (stereo not given)
45.6 to 46.8 °C	C=CC(=O)OCCCCCCOc1ccc(-c2cccc(F)c2F)cc1
73 to 77 °C	Cc1cc(SC2=C(O)CC(CCc3cccs3)(C(C)C)OC2=O)c(C(C)(C)C)cc1CO (stereo not given)
161 to 163 °C	COc1ccc(C2(C#N)CC=C(C(=O)O)CC2)cc1OC1CCCC1 (stereo not given)
59 to 60 °C	CC(C)c1sc(C#N)c2c1C(=O)CC(C)(C)C2
113 to 115 °C	CCOC(=O)c1c(-c2ccc(F)cc2)cc(-c2cccc3ccccc23)nc1C(C)C
115 °C	O=C(O)c1nc(-c2cc(Oc3ccc(Cl)cc3Cl)c(O)cc2Cl)no1
123 to 125 °C	CCCN(CCC)CCOc1ccc2[nH]c(C)c(C(=O)OCc3ccccc3)c2c1

melting point	SMILES
206 to 209 °C	O=C(O)C(Cc1ccccc1)Oc1ccc2cc(-c3oc4ccccc4c3Br)ccc2c1Br (stereo not given)
45 to 48 °C	CN1C(=O)CC[C@]2(C)c3ccc(-c4ccc(Cl)cc4Cl)cc3CC[C@@H]12
135 to 140 °C	COc1cc(NC(C)=O)c(Cl)cc1C(=O)N=[N+]=[N-]
183 to 184 °C	COCN(c1cccc2cc(C(=O)O)n(COC)c12)S(=O)(=O)c1cccs1
137 to 139 °C	CC(=NO)c1ccc(C(F)(F)C(F)(F)c2ccccc2)cc1
270 to 273 °C	COc1ccc(CN2Cc3cncn3C(c3ccc(-c4ccc(Cl)cc4)cc3)C2=O)cc1 (stereo not given)
240 °C	CC(C)NC(=O)N1CCc2[nH]cnc2C1c1ccccn1 (stereo not given)
123 to 124 °C	COc1cc(OC)nc(SCc2nc(C(F)(F)F)ccc2C(=O)O)n1
158 to 161 °C	Oc1c(C(Nc2ccc(C(F)(F)F)cc2)c2ccccn2)ccc2cccnc12 (stereo not given)
224 to 226 °C	Cn1c(=O)c(-c2c(Cl)cccc2Cl)cc2cnc(NCc3cccnc3)nc21
180 °C	c1ccc2c(c1)C[C@H]1CSC(=Nc3csc4cnccc34)N1C2
148 to 149 °C	COc1ccc(C(C)=NOCCOc2ccc(CC3SC(=O)NC3=O)cc2)cn1 (stereo not given)
128 to 130 °C	O=C(CCl)N1CC=C(c2cccc(C(F)(F)F)c2)n2ncc(Br)c21
212 to 216 °C	O=C(O)c1ccc(Cn2ccc3cc(OCc4ccc5ccccc5n4)ccc32)cc1
159 to 161 °C	CN1CCc2c(sc3c2C(=O)N(CCCl)CN3)C1
149 to 151 °C	CN(C)CC(O)COc1ccccc1CCCCc1ccccc1C(N)=O (stereo not given)
229 to 231 °C	O=C(O)C1=Cc2cc(Cl)ccc2N(Cc2ccc(C(F)(F)F)cc2)C1C(F)(F)F (stereo not given)
33 to 36 °C	C[C@@H]1CNCCN1C(=O)OC(C)(C)C
> 210 °C	NCc1cc(-c2csc(N=C(N)N)n2)ccn1
118 to 120 °C	CC(C)Sc1nc(-n2ccnc2)c(I)c(C(F)(F)F)n1
207 to 230 °C	CC1CC2=CC(=O)CCC2C2CCC3(C)C(C=O)CCC3C12 (stereo not given)
154 to 156 °C	CC1(C)Oc2ccc(C#N)cc2[C@@H](OC2=CC(=O)CC2)[C@@H]1O (relative stereo)
246 to 248 °C	Oc1ccc2nc(-c3cccc(Cl)c3)oc2c1

melting point	SMILES
138 °C	Cc1cccc(NC(=O)NCC(=O)N(c2ccccc2)C(C(=O)N2CCCC2)c2ccccc2)c1 (racemic)
48 to 50 °C	CCCCCCCCCCOC(=O)c1cc(C(=O)OCCCCCCCCCC)cc([N+](=O)[O-])c1
48 to 55 °C	CCc1nc(N)nc(N)c1CCC(C)c1ccc(C(F)(F)F)cc1 (stereo not given)
136 to 138 °C	CCN1CCCCC1CCc1ccccc1NC(=O)c1ccc(OC)cc1 (stereo not given)
195 to 196 °C	Cc1ccnc(-n2sc3ccccc3c2=O)c1
199 °C	CC1(C)CCOc2ccc(C(=O)c3ccc(C(=O)O)cc3)cc21
95 to 97 °C	CC(C)(C)OC(=O)NC(=NS(=O)(=O)C(F)(F)F)NC(=O)OCc1ccccc1
78 to 81 °C	COc1cc(C)c(CCCCCCCCCCCCCCCCCCCCCCO)c(O)c1OC
184 to 186 °C	Oc1ccc(-c2cc3cc(Cl)cc(Cl)c3o2)cc1
296 to 299 °C	Cc1ccccc1Sc1c(O)c2ccc(Cl)cc2[nH]c1=O
198 to 199 °C	Cn1cccc1C(=O)C(C#N)C(=O)Nc1ccc(F)cc1 (stereo not given)
169 to 171 °C	Cc1nc(N2CCN(CC3CC3)C2=O)sc1-c1cc[nH]n1
87 °C	NC(=O)C(=O)CCCCl
260 to 261 °C	CSc1nccc(-c2c[nH]c(=O)n2-c2ccc(F)cc2)n1
138 °C	Nc1ccccc1C1CCCN(C(=O)C(F)(F)F)C1 (stereo not given)
181 °C	COc1ccc(NC(=O)Nc2ccc(Cl)c(Cl)c2)cc1NC(=S)Nc1cc(C(F)(F)F)cc(C(F)(F)F)c1
204 °C	CC1C=NNc2c(-c3ccc(F)cc3)c(-c3ccncc3)nn21 (stereo not given)
264 to 265 °C	COC(=O)c1cc(OC)c(C)c2c1Oc1c(C=O)c(O)cc(C)c1C(=O)O2
185 to 186 °C	CC[C@H](C)[C@H](NC(=O)Nc1cccc(C)c1)C(=O)N[C@H](CO)Cc1c[nH]c2ccccc12
155 to 156 °C	CC(C)NC(=O)c1c(C(=O)O)ccc(Cl)c1Cl
146 to 147 °C	O=C1N[C@H](Cc2ccc(C(F)(F)F)cc2)[C@H](c2ccccc2F)O1 (racemic)
148 °C	c1csc(C2NCCNCc3ccccc32)c1 (stereo not given)
178 to 180 °C	CC#CCCn1ncc2c(N)c3c(nc21)CN(CCC)C3=O

SMILES	melting point
Cc1c(C(=O)C=Cc2ccccc2F)c2ccccc2n1CCN1CCOCC1	113 to 116 °C
COC1=CC2=CCC3C(CCC4(C)C(=O)CC(OC(C)=O)C34)C2(C)CC1 (stereo not given)	209 °C
CNC(=O)Oc1ccc(NC(=O)COC)c(C)c1	130 to 132 °C
O=c1[nH]c2cc(F)c(F)cc2c(=O)n1CCCN1CC=C(c2ccc(Cl)cc2)CC1	204 to 205 °C
CN1CCC(c2cc3c(F)cccc3c(=O)[nH]2)CC1	220 to 222 °C
CC1CC(O)=CC2=CCC3C4CCC(O)C4(C)CCC3C21C (stereo not given)	111 to 112 °C
Cc1cc(Cl)cc(C(=O)NC(C)C)c1NC(=O)c1cc(C(F)(F)F)nn1-c1ncccc1Cl	195 to 196 °C
C[C@H]1CCCC(C)(C)[C@@H]1[C@H](O)c1ccc(F)c(C#N)c1	118 to 119 °C
